Measured values: patent US11638713B2, “Patentiflorin A analogs as antiviral agents” (priority 2019, dated 2023)

Columns and labels:
in vitro = details: human
HIV = assay: microbe, parasite or virus in culture; format: cell-based; details: for EC50: Human immunodeficiency virus 1, A549
[1] = system: VSV (vesicular stomatitis virus); assay: microbe, parasite or virus in culture; format: cell-based
H5N1 virus = assay: microbe, parasite or virus in culture; format: cell-based, H5N1 influenza virus; details: Influenza A virus
EBOV (Ebola virus) = assay: microbe, parasite or virus in culture; format: cell-based; details: Zaire ebolavirus
A549 cells = assay: cells; details: Homo sapiens, A549, read-out: % Inhibition against A549 cells

Compound: C=CCOC(=O)O[C@H]1[C@H](O)[C@@H](OC(=O)OCC=C)C(Oc2c3c(c(-c4ccc5c(c4)OCO5)c4cc(OC)c(OC)cc24)C(=O)OC3)O[C@@H]1C (stereo partly drawn) [Compound 29b, 2″,4″-O-diallyl oxycarbonyl-7-O-β-D-patentiflorin A]
- CC50 (in vitro; CC50 (nM)): 187 nM
- EC50 (HIV): 4.7 nM

Compound: COc1cc2c(OC(=O)c3ccc(F)cc3)c3c(c(-c4ccc5c(c4)OCO5)c2cc1OC)C(=O)OC3 [Compound 17g]
- CC50 (in vitro; CC50 (nM)): 1320 nM
- EC50 (HIV): 79.9 nM

Compound: COc1cc2c(OC3O[C@H](C)[C@@H](OC(C)=O)[C@H](O)[C@H]3OC(C)=O)c3c(c(-c4ccc5c(c4)OCO5)c2cc1OC)C(=O)OC3 (stereo partly drawn) [Compound 27be, 2″,4″-Diacetyl-7-O-β-D-patentiflorin A]
- CC50 (in vitro; CC50 (nM)): 1670 nM
- EC50 (HIV): 1.96 nM

Compound: C=CCOC(=O)O[C@H]1C(Oc2c3c(c(-c4ccc5c(c4)OCO5)c4cc(OC)c(OC)cc24)C(=O)OC3)OC[C@@H](O)[C@@H]1OC(C)=O (stereo partly drawn) [Compound 28ab2, 2″-O-allyl oxycarbonyl-3″-acetyl-7-O-β-D-xylosyldiphyllin]
- EC50 ([1]; A549, read-out: EC50 against VSV): 4.98 nM
- EC50 (H5N1 virus; H5N1, A549, read-out: EC50 against H5N1 virus): 0.23 nM
- CC50 (in vitro; CC50 (nM)): 386 nM
- CC50 (in vitro; CC50 against the host cell line A549): 108 nM
- EC50 (HIV): 2.3 nM
- EC50 (EBOV (Ebola virus); A549, read-out: EC50 against EBOV): 16.3 nM

Compound: COc1cc2c(OC3OC[C@@H](O)[C@H](OC(=O)N(C)C)[C@H]3O)c3c(c(-c4ccc5c(c4)OCO5)c2cc1OC)C(=O)OC3 (stereo partly drawn) [Compound 31a, 3″-O-dimethylcarbamyl-7-O-β-D-xylosyldiphyllin]
- inhibition at 1 µg/mL ([1]; A549, 1000 ng/mL, read-out: % Inhibition against VSV): 80.4%
- inhibition at 5 µg/mL ([1]; A549, 5000 ng/mL, read-out: % Inhibition against VSV): 99.6%
- inhibition at 0.0125 µg/mL (H5N1 virus; H5N1, A549, 12.5 ng/mL, read-out: % Inhibition against H5N1 virus): 87.9%
- inhibition at 0.05 µg/mL (H5N1 virus; H5N1, A549, 50 ng/mL, read-out: % Inhibition against H5N1 virus): 94.4%
- inhibition at 0.25 µg/mL (H5N1 virus; H5N1, A549, 250 ng/mL, read-out: % Inhibition against H5N1 virus): 97.6%
- inhibition at 1 µg/mL (H5N1 virus; H5N1, A549, 1000 ng/mL, read-out: % Inhibition against H5N1 virus): 94.7%
- inhibition at 5 µg/mL (H5N1 virus; H5N1, A549, 5000 ng/mL, read-out: % Inhibition against H5N1 virus): 98.4%
- inhibition at 1 µg/mL (A549 cells): 47.5%
- inhibition at 5 µg/mL (A549 cells): 99.8%
- CC50 (in vitro; CC50 (nM)): 55.8 nM
- inhibition at 1 µg/mL (EBOV (Ebola virus); A549, 1000 ng/mL, read-out: % Inhibition against EBOV): 81.8%
- inhibition at 5 µg/mL (EBOV (Ebola virus); A549, 5000 ng/mL, read-out: % Inhibition against EBOV): 95.2%

Compound: COc1cc2c(OC3O[C@H](C)[C@@H](OC(C)=O)[C@H](O)[C@H]3O)c3c(c(-c4ccc5c(c4)OCO5)c2cc1OC)C(=O)OC3 (stereo partly drawn) [Compound 27ba, 4″-Acetyl-7-O-β-D-patentiflorin A]
- CC50 (in vitro; CC50 (nM)): 1160 nM
- EC50 (HIV): 8.47 nM

Compound: COc1cc2cc3c(c(-c4ccc5c(c4)OCO5)c2cc1OC)C(=O)OC3 [Compound 19d]
- CC50 (in vitro; CC50 (nM)): 5430 nM
- anti-HIV activity in terms of SI values (HIV): much more improved anti-HIV activity
- EC50 (HIV): 22.9 nM

Compound: COc1cc2c(OC(=O)C3CCCC3)c3c(c(-c4ccc5c(c4)OCO5)c2cc1OC)C(=O)OC3 [Compound 17f]
- CC50 (in vitro; CC50 (nM)): 7070 nM
- EC50 (HIV): 772 nM

Compound: COc1cc2c(Nc3ccc(C(F)(F)F)cc3)c3c(c(-c4ccc5c(c4)OCO5)c2cc1OC)C(=O)OC3 [Compound 19e]
- CC50 (in vitro; CC50 (nM)): > 9550 nM
- EC50 (HIV): 212 nM

Compound: COc1cc2c(NC(C)=O)c3c(c(-c4ccc5c(c4)OCO5)c2cc1OC)C(=O)OC3 [Compound 24]
- CC50 (in vitro; CC50 (nM)): > 11900 nM
- EC50 (HIV): 88.9 nM

Compound: COc1cc2c(-c3ccco3)c3c(c(-c4ccc5c(c4)OCO5)c2cc1OC)C(=O)OC3 [Compound 19k]
- CC50 (in vitro; CC50 (nM)): 1060 nM
- EC50 (HIV): 60.1 nM
